Series [1] in a line: Human microsomal stability assay. It counts as in vitro ADME. As to conditions: human liver microsomes, 1 μM test compound, 37° C., pH 7.4. As for the experimental part: Human Microsomal Stability Assay
Human liver microsomes (Cat. NO.: 452117, Corning, USA) were preincubated with test compound for 10 minutes at 37° C. in 100 mM potassium phosphate buffer, pH 7.4. The reactions were initiated by adding NADPH regenerating system. The final incubation mixtures contained 1 μM test compound, 0.5 mg/mL liver microsomal protein, 1 mM MgCl2, 1 mM NADP, 1 unit/mL isocitric dehydrogenase and 6 mM isocitric acid in 100 mM potassium phosphate buffer, pH 7.4. After incubation times of 0, 3, 6, 9, 15 and 30 minutes at 37° C., 300 μL of cold ACN (including internal standard) was added to 100 μL incubation mixture to terminate the reaction. Following precipitation and centrifugation, 100 μL supernatant will be taken out and added 300 μL water. The amount of compound remaining in the samples was determined by LC-MS/MS. Controls of no NADPH regenerating system at zero and 30 minutes were also prepared and analyzed. The results were categorized as: low (<7.0 mL/min/kg), medium (7.0-16.2 mL/min/kg) and high (16.2-23.2 mL/min/kg).

The target in series [2] is human TLR9 (Homo sapiens (Human), UniProt Q9NR96). The experiment in a line: HEK293-Blue-hTLR-9 cells assay. It counts as cell-based. To be noted: HEK293-Blue-hTLR9 cells, ODN2006 stimulation, 20 hrs, SEAP reporter; read-out: HEK/hTLR9 IC50. From the text:
HEK293-Blue-hTLR-9 Cells Assay:
A stable HEK293-Blue-hTLR-9 cell line was purchased from InvivoGen (Cat. #: hkb-htlr9, San Diego, California, USA). These cells were originally designed for studying the stimulation of human TLR9 by monitoring the activation of NF-κB. A SEAP (secreted embryonic alkaline phosphatase) reporter gene was placed under the control of the IFN-β minimal promoter fused to five NF-κB and AP-1-binding sites. The SEAP was induced by activating NF-κB and AP-via stimulating HEK-Blue hTLR9 cells with TLR9 ligands. Therefore the reporter expression was declined by TLR9 antagonist under the stimulation of a ligand, such as ODN2006 (Cat. #: tlrl-2006-1, Invivogen, San Diego, California, USA), for incubation of 20 hrs. The cell culture supernatant SEAP reporter activity was determined using QUANTI-Blue™ kit (Cat. #: rep-qb1, Invivogen, San Diego, California, USA) at a wavelength of 640 nm, a detection medium that turns purple or blue in the presence of alkaline phosphatase.
(§1) HEK293-Blue-hTLR9 cells were incubated at a density of 250,000˜450,000 cells/mL in a volume of 170 μL in a 96-well plate in Dulbecco's Modified Eagle's medium (DMEM) containing 4.5 g/L glucose, 50 U/mL penicillin, […], […], 2 mM L-glutamine, 10% (v/v) heat-inactivated fetal bovine serum with addition of 20 μL test compound in a serial dilution in the presence of final DMSO at 1% and 10 μL of 20 μM ODN2006 in above DMEM, perform incubation under 37° C. in a CO2 incubator for 20 hrs. Then 20 μL of the supernatant from each well was incubated with 180 μL Quanti-blue substrate solution at 37° C. for 2 h and the absorbance was read at 620-655 nm using a spectrophotometer. The signaling pathway that TLR9 activation leads to downstream NF-κB activation has been widely accepted, and therefore similar reporter assay was modified for evaluating TLR9 antagonist.

The target in series [3] is human TLR8 (Homo sapiens (Human), UniProt Q9NR97). Put plainly: HEK293-Blue-hTLR-8 cells assay. As to conditions: HEK293-Blue-hTLR8 cells, R848 stimulation, 20 hrs, SEAP reporter; read-out: HEK/hTLR8 IC50. It counts as cell-based. From the text: HEK293-Blue-hTLR-8 Cells Assay:
(§2) A stable HEK293-Blue-hTLR-8 cell line was purchased from InvivoGen (Cat. #: hkb-htlr8, San Diego, California, USA). These cells were originally designed for studying the stimulation of human TLR8 by monitoring the activation of NF-κB. A SEAP (secreted embryonic alkaline phosphatase) reporter gene was placed under the control of the IFN-β minimal promoter fused to five NF-κB and AP-1-binding sites. The SEAP was induced by activating NF-κB and AP-1 via stimulating HEK-Blue hTLR8 cells with TLR8 ligands. Therefore the reporter expression was declined by TLR8 antagonist under the stimulation of a ligand, such as R848, for incubation of 20 hrs. The cell culture supernatant SEAP reporter activity was determined using QUANTI-Blue™ kit (Cat. #: rep-Qb1, Invivogen, San Diego, Ca, USA) at a wavelength of 640 nm, a detection medium that turns purple or blue in the presence of alkaline phosphatase.
HEK293-Blue-hTLR8 cells were incubated at a density of 250,000-450,000 cells/mL in a volume of 170 μL in a 96-well plate in Dulbecco's Modified Eagle's medium (DMEM) containing 4.5 g/L glucose, 50 U/mL penicillin, […], […], 2 mM L-glutamine, 10% (v/v) heat-inactivated fetal bovine serum with addition of 20 μL test compound in a serial dilution in the presence of final DMSO at 1% and 10 μL of 60 μM R848 in above DMEM, perform incubation under 37° C. in a CO2 incubator for 20 hrs. Then 20 μL of the supernatant from each well was incubated with 180 μL Quanti-blue substrate solution at 37° C. for […] and the absorbance was read at 620˜655 nm using a spectrophotometer. The signaling pathway that TLR8 activation leads to downstream NF-κB activation has been widely accepted, and therefore similar reporter assay was modified for evaluating TLR8 antagonist.

The target of series [4] is human TLR7 (Homo sapiens (Human), UniProt Q9NYK1). Put plainly: HEK293-Blue-hTLR-7 cells assay. It counts as cell-based. To be noted: HEK293-Blue-hTLR7 cells, R848 stimulation, 20 hrs, SEAP reporter; read-out: HEK/hTLR7 IC50.
human TLR7, sequence (Q9NYK1 27-1049): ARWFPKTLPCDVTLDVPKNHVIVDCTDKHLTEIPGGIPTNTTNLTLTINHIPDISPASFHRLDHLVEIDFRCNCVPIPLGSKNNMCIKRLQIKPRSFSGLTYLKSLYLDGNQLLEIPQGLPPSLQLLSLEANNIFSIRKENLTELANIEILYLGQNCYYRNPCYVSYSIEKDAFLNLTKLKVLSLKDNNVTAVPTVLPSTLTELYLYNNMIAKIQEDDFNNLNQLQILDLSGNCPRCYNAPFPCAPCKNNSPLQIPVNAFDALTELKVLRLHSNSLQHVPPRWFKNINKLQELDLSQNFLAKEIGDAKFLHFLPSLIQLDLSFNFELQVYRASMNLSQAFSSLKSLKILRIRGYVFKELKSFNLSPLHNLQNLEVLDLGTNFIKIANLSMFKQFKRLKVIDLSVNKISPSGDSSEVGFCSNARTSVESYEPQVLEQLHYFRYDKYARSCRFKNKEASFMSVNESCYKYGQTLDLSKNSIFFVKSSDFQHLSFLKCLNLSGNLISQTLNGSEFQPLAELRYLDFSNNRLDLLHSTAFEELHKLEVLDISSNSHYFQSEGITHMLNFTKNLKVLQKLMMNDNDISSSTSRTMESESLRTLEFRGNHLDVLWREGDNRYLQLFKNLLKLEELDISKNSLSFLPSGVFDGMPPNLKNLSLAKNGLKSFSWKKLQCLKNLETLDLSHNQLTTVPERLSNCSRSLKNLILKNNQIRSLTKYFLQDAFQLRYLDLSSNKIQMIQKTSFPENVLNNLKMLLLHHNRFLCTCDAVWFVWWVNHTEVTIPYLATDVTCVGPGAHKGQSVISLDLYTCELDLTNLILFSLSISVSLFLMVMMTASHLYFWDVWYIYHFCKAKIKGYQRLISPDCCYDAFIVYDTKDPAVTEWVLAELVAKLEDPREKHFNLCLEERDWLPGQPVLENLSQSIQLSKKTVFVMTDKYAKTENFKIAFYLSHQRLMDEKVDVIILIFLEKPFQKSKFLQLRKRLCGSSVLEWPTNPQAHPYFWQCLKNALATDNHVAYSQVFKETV
Text: HEK293-BLUE-hTLR-7 CELLS ASSAY:
as §2, with “HEK293-Blue-hTLR-7” for “HEK293-Blue-hTLR-8”, “hkb-htlr7,” for “hkb-htlr8,”, “TLR7” for “TLR8”, “hTLR7” for “hTLR8”, “R848 (Resiquimod),” for “R848,”, “rep-qb1,” for “rep-Qb1,”
as §1, with “HEK293-Blue-hTLR7 cells” for “HEK293-Blue-hTLR9 cells”, “μM R848” for “μM ODN2006”, “2 hrs” for “2 h”, “that TLR7” for “that TLR9”, “evaluating TLR7” for “evaluating TLR9”

Each structure is given as a SMILES string.

human TLR9, sequence (Q9NR96 26-1032): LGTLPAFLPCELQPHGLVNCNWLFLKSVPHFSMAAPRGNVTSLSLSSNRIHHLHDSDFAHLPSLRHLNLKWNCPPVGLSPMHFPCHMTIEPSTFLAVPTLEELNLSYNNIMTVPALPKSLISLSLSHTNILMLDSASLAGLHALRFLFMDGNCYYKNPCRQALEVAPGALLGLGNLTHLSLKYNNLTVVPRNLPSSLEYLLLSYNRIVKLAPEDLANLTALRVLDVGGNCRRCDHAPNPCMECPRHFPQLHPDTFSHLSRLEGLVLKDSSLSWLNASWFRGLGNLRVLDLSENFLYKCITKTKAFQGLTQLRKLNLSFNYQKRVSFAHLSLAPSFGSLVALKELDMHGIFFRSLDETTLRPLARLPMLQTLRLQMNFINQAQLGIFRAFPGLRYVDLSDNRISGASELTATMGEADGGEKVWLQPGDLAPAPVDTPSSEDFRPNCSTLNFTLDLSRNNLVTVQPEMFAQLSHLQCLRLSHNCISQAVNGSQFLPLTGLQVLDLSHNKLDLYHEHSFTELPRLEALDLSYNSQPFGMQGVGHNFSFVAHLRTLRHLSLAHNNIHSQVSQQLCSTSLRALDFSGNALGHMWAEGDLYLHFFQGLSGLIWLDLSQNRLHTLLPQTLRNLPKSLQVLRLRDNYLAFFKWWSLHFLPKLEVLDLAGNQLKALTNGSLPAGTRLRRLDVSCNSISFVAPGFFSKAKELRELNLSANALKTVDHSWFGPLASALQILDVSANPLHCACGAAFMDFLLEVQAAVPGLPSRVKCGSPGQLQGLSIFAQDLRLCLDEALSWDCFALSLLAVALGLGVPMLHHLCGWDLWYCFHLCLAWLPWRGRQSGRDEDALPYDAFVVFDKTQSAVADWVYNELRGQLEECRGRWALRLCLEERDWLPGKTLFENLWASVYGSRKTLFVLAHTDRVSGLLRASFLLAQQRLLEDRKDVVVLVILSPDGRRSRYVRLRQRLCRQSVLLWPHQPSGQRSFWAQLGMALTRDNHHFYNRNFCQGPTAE
human TLR8, sequence (Q9NR97 27-1041): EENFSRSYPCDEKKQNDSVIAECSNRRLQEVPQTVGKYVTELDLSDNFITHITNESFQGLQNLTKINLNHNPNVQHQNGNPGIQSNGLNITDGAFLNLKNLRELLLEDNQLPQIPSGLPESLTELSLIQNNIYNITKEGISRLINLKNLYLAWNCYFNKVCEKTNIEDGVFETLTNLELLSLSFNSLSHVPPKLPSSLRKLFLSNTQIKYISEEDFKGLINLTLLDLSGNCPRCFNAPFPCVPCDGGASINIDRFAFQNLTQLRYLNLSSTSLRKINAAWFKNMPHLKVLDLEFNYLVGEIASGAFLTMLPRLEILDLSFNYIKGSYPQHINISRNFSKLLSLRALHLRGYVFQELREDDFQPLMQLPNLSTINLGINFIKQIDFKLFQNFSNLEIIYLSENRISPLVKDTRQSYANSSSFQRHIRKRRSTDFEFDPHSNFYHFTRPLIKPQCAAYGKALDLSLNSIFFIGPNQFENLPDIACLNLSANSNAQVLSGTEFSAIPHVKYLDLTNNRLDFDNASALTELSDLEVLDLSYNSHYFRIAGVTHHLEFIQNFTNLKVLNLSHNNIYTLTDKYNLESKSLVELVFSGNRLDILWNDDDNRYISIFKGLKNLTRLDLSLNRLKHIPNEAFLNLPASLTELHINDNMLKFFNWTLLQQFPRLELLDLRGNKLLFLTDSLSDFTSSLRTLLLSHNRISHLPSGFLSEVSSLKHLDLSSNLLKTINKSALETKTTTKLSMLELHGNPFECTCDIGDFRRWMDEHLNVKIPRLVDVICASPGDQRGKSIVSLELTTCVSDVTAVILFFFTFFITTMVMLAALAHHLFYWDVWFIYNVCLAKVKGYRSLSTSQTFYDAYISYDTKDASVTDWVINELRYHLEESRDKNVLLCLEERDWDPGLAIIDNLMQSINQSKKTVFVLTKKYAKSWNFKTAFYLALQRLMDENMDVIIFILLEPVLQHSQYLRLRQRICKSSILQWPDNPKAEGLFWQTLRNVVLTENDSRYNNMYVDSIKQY

In the case of `[2H]c1ccc2c(N3C[C@@H]4C[C@H](N5CCC(C)(N)CC5)CN4[C@H](C)C3)ccc(C#N)c2n1` [Example 18, 5-[(4R,7S,8aS)-7-(4-amino-4-methyl-1-piperidyl)-4-methyl-3,4,6,7,8,8a-hexahydro-1H-pyrrolo[1,2-a]pyrazin-2-yl]-2-deuterio-quinoline-8-carbonitrile], the “CL (h)” value in series [1] turned out to be 9.8 mL/min/kg. Also, the IC50 in series [2] amounted to 46.7 nM; in series [3] it was 12.3 nM; in series [4] it was 16.4 nM.

Regarding `[2H]c1ccc2c(N3C[C@@H]4C[C@H](n5cc6c(n5)CNCC6)CN4[C@H](C)C3)ccc(C#N)c2n1` [Example 23B, 2-deuterio-5-[(4R,7S,8aS)-4-methyl-7-(4,5,6,7-tetrahydropyrazolo[3,4-c]pyridin-2-yl)-3,4,6,7,8,8a-hexahydro-1H-pyrrolo[1,2-a]pyrazin-2-yl]quinoline-8-carbonitrile], the “CL (h)” value in series [1] is listed as 6.2 mL/min/kg. For the same compound, the IC50 worked out at 154 nM in series [2], 3.4 nM in series [3] and 12 nM in series [4].

Consider `[2H]c1ccc2c(N3C[C@@H]4C[C@H](N5CCC(C)(N)C5)CN4[C@H](C)C3)ccc(C#N)c2n1` (stereo partly drawn) [Example 19, 2-Deuterio-5-[(4R,7S,8aS)-7-(3-amino-3-methyl-pyrrolidin-1-yl)-4-methyl-3,4,6,7,8,8a-hexahydro-1H-pyrrolo[1,2-a]pyrazin-2-yl]quinoline-8-carbonitrile], for which the “CL (h)” value in series [1] was 8.6 mL/min/kg. Besides, the IC50 turned out to be 210 nM in series [2], 8.9 nM in series [3] and 19.9 nM in series [4].

In the case of `C[C@@H]1NCCc2cnc(N[C@@H]3C[C@H]4CN(c5ccc(C#N)c6ncccc56)C[C@@H](C)N4C3)cc21` [Example 9A, 5-[(4R,7R,8aS)-4-methyl-7-[[(5S)-5-methyl-5,6,7,8-tetrahydro-2,6-naphthyridin-3-yl]amino]-3,4,6,7,8,8a-hexahydro-1H-pyrrolo[1,2-a]pyrazin-2-yl]quinoline-8-carbonitrile], the “CL (h)” value in series [1] was 8.4 mL/min/kg. Besides, the IC50 in series [2] was 65.7 nM; in series [3] it was 8.6 nM; in series [4], 18.2 nM.

For `[2H]c1ccc2c(N3C[C@@H]4C[C@H](N5CCc6ncc(N7CCNCC7)nc6C5)CN4[C@H](C)C3)ccc(C#N)c2n1` [Example 24], the “CL (h)” value in series [1] is recorded as 8.9 mL/min/kg. The IC50 came to 95.2 nM in series [2], 5.9 nM in series [3] and 4.3 nM in series [4].

On to `C[C@@H]1CN(c2ccc(C#N)c3ncccc23)C[C@@H]2C[C@@H](Nc3ncc4c(n3)CCNC4)CN21` [Example 6, 5-[(4R,7R,8aS)-4-methyl-7-(5,6,7,8-tetrahydropyrido[4,3-d]pyrimidin-2-ylamino)-3,4,6,7,8,8a-hexahydro-1H-pyrrolo[1,2-a]pyrazin-2-yl]quinoline-8-carbonitrile], for which the IC50 in series [2] is 157 nM; in series [3], 12.9 nM; in series [4] it was 18.8 nM.

For the compound `C[C@@H]1CN(c2ccc(C#N)c3ncccc23)C[C@@H]2C[C@@H](Nc3ccc4c(n3)CN[C@@H]4C)CN21` [Example 7A, 5-[(4R,7R,8aS)-4-methyl-7-[[(5R)-5-methyl-6,7-dihydro-5H-pyrrolo[3,4-b]pyridin-2-yl]amino]-3,4,6,7,8,8a-hexahydro-1H-pyrrolo[1,2-a]pyrazin-2-yl]quinoline-8-carbonitrile], the IC50 in series [2] came to 53.5 nM; in series [3], 9 nM; in series [4] it was 17.7 nM.

Turning to `CO[C@@H]1CN(c2ccc3c(n2)CCN([C@H]2C[C@H]4CN(c5ccc(C#N)c6ncccc56)C[C@@H](C)N4C2)C3)C[C@H]1N` [Example 11, 5-[(4R,7S,8aS)-7-[2-[(3R,4R)-3-amino-4-methoxy-pyrrolidin-1-yl]-7,8-dihydro-5H-1,6-naphthyridin-6-yl]-4-methyl-3,4,6,7,8,8a-hexahydro-1H-pyrrolo[1,2-a]pyrazin-2-yl]quinoline-8-carbonitrile], the IC50 in series [2] was 59.2 nM; in series [3], 8.5 nM; in series [4], 23.4 nM.

The values above are taken from patent US12486273B2 (Hoffmann-La Roche Inc., priority 2019, dated 2025).
